For assay [1], the target named is T1, CepR (Burkholderia multivorans, UniProt Q93PF7).
T1 sequence (Q93PF7 1-239): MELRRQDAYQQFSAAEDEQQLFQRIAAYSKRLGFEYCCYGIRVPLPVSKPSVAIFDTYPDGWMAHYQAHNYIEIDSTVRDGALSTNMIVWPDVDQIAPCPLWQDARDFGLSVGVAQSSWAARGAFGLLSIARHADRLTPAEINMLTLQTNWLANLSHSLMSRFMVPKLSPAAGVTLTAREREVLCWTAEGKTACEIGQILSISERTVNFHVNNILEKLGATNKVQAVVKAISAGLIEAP
Description: CepR antagonism in B. multivorans cepI::lacZ reporter (Bm-reporter), competition against C8-AHL. As to conditions: for IC50: read-out: IC50. The assay is classed as cell-based. From the text:
(§1) We next sought to assess if the CepR modulators identified in the Ec-reporter maintained their activities in a member of the Bcc. For these studies, we generated a B. multivorans cepI::lacZ reporter organism (Bm-reporter) using standard allelic exchange methods (see Methods). Along with B. cenocepacia, B. multivorans is one of the most commonly isolated Bcc members[6],[44]. We note that small molecules must contend with a different cellular environment in the native organism relative to E. coli[48]; however, as both CepR and the cepI promoter are highly conserved among Bcc species (Fig. S3), we reasoned that the majority of compounds identified in the Ec-reporter (containing B. cenocepacia versions of the cepI promoter and the cepR gene) would maintain their relative activity profiles in CepR in B. multivorans. […] Similar to the Ec-reporter, CepR binding to the cepI promoter then induces β-galactosidase production, allowing for the quantitation of CepR activity. Using the Bm-reporter organism, we observed robust activity for CepR in response to C8-AHL (EC50 = 0.7 nM, Table 3).
(§2) The B. multivorans cepI::lacZ strain was used to obtain dose-response data for CepR in response to synthetic AHLs. Overnight cultures of B. multivorans cepI::lacZ were grown in LB medium at 37 °C with shaking (225 rpm). Aliquots (200 μL) of a 1:10 dilution of this overnight culture were plated into 96-well plates containing varying concentrations of compound, and then grown for 4 h at 37 °C with shaking (225 rpm). β-galactosidase production was measured as described above for E. coli, with the following changes: permeabilized cells were incubated at 25 °C with substrate CPRG for ~10 min until positive control wells developed a deep red color. For agonism assays, synthetic compound was screened alongside and compared to the native ligand, C8-AHL (100 μM). For antagonism assays, the concentration of native ligand utilized was 5 nM (approximately equal to twice its EC50 value).

Assay [2] has as its target T2, CepR (Burkholderia cenocepacia, UniProt B4EMD0).
T2 sequence (B4EMD0 1-239): T1 sequence (Q93PF7 1-239) with R5W, S51A, H69Q, S84N, Q95R, A97D
Kind of assay: CepR agonism in E. coli β-galactosidase reporter (Ec-reporter) JLD271 [pJN105-cepR + pSC11-cepI]. The assay is classed as cell-based, B. cenocepacia. The note with it: for Act%: Table S2, Ec-reporter, screening conc. 100 μM. An outline of the steps: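 E. coli JLD271 (ΔsdiA) carrying arabinose-inducible CepR (27 mM L-arabinose) and cepI-lacZ fusion, grown 4 h with compound; β-galactosidase measured by CPRG cleavage at 37 °C (~30 min), normalized to OD600. Agonism compared with C8-AHL at 100 μM; screen at 100 μM or solubility limit, then dose-response; ≥3 trials.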

Assay [3] has as its system CepR. On the set-up: method as in PMID 15978077. The note with it: at concentrations greater than 1 μM; cited from earlier work.
Assay [4] concerns the target T2, CepR. Description: CepR antagonism in E. coli β-galactosidase reporter (Ec-reporter), competition against C8-AHL. The class given is cell-based, B. cenocepacia. The note with it: against 10 nM C8-AHL; for IC50 / Maximal Inhibition (%): Ec-reporter. In a few lines: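 CepR antagonism was measured in E. coli JLD271 (∆sdiA) carrying pJN105-cepR, which expresses B. cenocepacia CepR from an arabinose-inducible pBAD promoter, and pSC11-cepI, which fuses lacZ to the cepI promoter. Induced cells were grown 4 h with compound and 10 nM C8-AHL. β-Galactosidase activity was then read by CPRG cleavage at 37 °C after Z Buffer permeabilization.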

The target in assay [5] is T1, CepR. Kind of assay: CepR agonism in B. multivorans cepI::lacZ reporter (Bm-reporter). The class given is cell-based. The note with it: Table S4, Bm-reporter; screening conc. 100 μM.
Excerpt: as §1, §2

The mark [6] stands for this setting: Bm-reporter, against 5 nM C8-AHL.

Numbering of substitutions follows the chain as printed. Read-outs that look alike come from different tables or passages of the source. A value given as a limit tells only on which side of the number the result lay.

What is called EC50 is the concentration giving half of the maximal effect. Broadly, the IC50 is the concentration needed to halve the response being measured.

With `CCCCCC(=O)N[C@H]1CCOC1=O` [Compound C6-AHL, hexanoyl L-homoserine lactone, reference compound], the results for the “Maximal Inhibition (%)” value at CepR [1] (setting [6]) and at CepR [4] were 20% and 83%, respectively. On CepR [2] (Ec-reporter, agonism dose-response), the EC50 was no less than 20 µM. Besides, the “Maximal Activation (%)” value at CepR [2] (Ec-reporter, activity for 100 μM C8-AHL set to 100%, error ±10%) came to 87%. In addition, at CepR [2], the Act% was determined as 87%. Besides, in the assay with CepR [3], the “Effect on CepR” value is given as “slight inhibitory effects”. The same molecule registered an IC50 at CepR [4] of 7.5 µM.

As to `O=C(Cc1cccc(I)c1)N[C@H]1CCOC1=O` [Compound C11], on CepR [1] (Table S5, Bm-reporter), the IC50 amounted to 1.6 µM. Moreover, the “Inh% (100-Act%)” value on CepR [1] (Table S5, Bm-reporter, screening conc. 100 μM) was determined as 80%; at CepR [4] (Table S3, Ec-reporter, screening conc. 100 μM), 27%. For the same molecule, the Act% on CepR [2] is given as 43%; on CepR [5], 2.3%.

`C#CCCCC(=O)NC1CCOC1=O` (stereo not drawn) [5-hexynoyl-HL]: in the assay on CepR [3], the “Effect on CepR” value was “slight inhibitory effects”.

On to `O=C(Cc1ccc(F)c(C(F)(F)F)c1)N[C@H]1CCOC1=O` [Compound E10], for which the “Maximal Inhibition (%)” value at CepR [1] (setting [6]) is on record as 21%; on CepR [4], 79%. Further, the Act% amounted to 13% at CepR [2] and 11% at CepR [5]. The molecule further gave a half-inhibitory concentration (IC50) on CepR [4] of 0.43 µM.

For `CSc1cccc(CC(=O)NC2CCOC2=O)c1` (stereo not drawn) [Compound E7], the “CepR antagonism in words” value at CepR [1] (Bm-reporter) is recorded as “bring reporter activity down to nearly zero”. For the same molecule, the “Maximal Inhibition (%)” value at CepR [1] (setting [6]) came to 97%; at CepR [4], 76%. In addition, the half-maximal inhibitory concentration (IC50) at CepR [1] (setting [6]) amounted to 4 µM; on CepR [4], 3.1 µM. The Act% on CepR [2] was 5.9%.

(Values after paper PMC6748986, “Potent modulation of the CepR quorum sensing receptor and virulence in a Burkholderia cepacia complex member using non-native lactone ligands” (Scientific Reports, 2019).)
